By cell viability is commonly meant a read-out of living cells in per cent, often relative to untreated cells.

The values that follow come from US20150290232A1, “DRUG COMPOSITION FOR TREATING TUMORS AND APPLICATION THEREOF” (priority 2012, published 2015).

SMILES strings stand for the structures. Where two headings read alike, the source gives them in different places.

The test system of data set [1] is A549 transplanted tumor (human non-small cell lung cancer cell line). Description: Example 5: Acla A on A549 transplanted tumor in nude mice. It counts as in vivo, BALB/c-nu nude mice. The following applies: A549, Jef 50 mg/kg/time intragastric, 2 times a day, 14 days, Day 20. On the procedure:
Under sterile conditions, the above tumor cells were collected in the logarithmic growth phase. A549 was injected by subcutaneous injection in an amount of 6×10 6/0.2 mL/nude mice (cell viability>90%) into the right subaxillary of the nude mice, thus establishing transplated tumor models of lung cancer in nude mice. The mice were administered from the second day after the inoculation. The experimental group was intragastrically administered at the experimentally designed amount, the negative control group was intragastrically administered with sterile water, and the positive control group is intragastrically administered with Jef. Each mouse was intragastrically administered in 0.4 ml each time and 2 times a day, at 8:00, and 14:00. The administrations were successive for 14 days. The day before administration was deemed as Day 0 and the body weight and tumor size of the mice were determined every 5 days to produce a dynamic plot on body weight and tumor growth. On Day 20, the mice were sacrificed and the tumors were taken out and weighed. The tumor inhibition rate (%) was calculated after the effect of the medicament based on a tumor inhibition rate of the control group being zero.
(§1) The values determined were presented as mean±standard error (Mean±SD). The experimental data for each group was analyzed with One-way ANOVA method in the SPSS 18.0 statistical software, and p<0.05 means that the differences are statistically significant.

Data set [2] concerns Hep G2 transplanted tumor (human hepatoma carcinoma cell). The data set can be described thus: Example 6: TTD and Acla A combined on Hep G2 transplanted tumor in nude mice. It counts as in vivo, BALB/c-nu nude mice. The settings on record: Hep G2, Jef 50 mg/kg/time intragastric, 3 times a day, 10 days, Day 29. On the procedure:
(§2) Under sterile conditions, the above tumor cells were collected in the logarithmic growth phase. A549 was injected by subcutaneous injection in an amount of 1×10 7/0.2 mL/nude mice (cell viability>90%) into the right subaxillary of the nude mice, whereas HepG2 was injected by subcutaneous injection in an amount of 1×10 7/0 2 mL/nude mice (cell viability>90%) into the left subaxillary of the nude mice, thus establishing transplated tumor models of lung cancer and liver cancer respectively in nude mice. The mice were administered from the second day after the inoculation. […] Each mouse was intragastrically administered in 0.4 ml each time and 3 times a day, at 8:00, 14:00 and 20:00. The administrations were successive for 10 days. The day before administration was deemed as Day 0 and the body weight and tumor size of the mice were determined every 5 days to produce a dynamic plot on body weight and tumor growth. On Day 29, the mice were sacrificed and the tumors were taken out and weighed. The tumor inhibition rate (%) was calculated after the effect of the medicament based on a tumor inhibition rate of the control group being zero.
as §1

In data set [3] the test system is A549 transplanted tumor (human non-small cell lung cancer cell line). Description: Example 6: TTD and Acla A combined on A549 transplanted tumor in nude mice. The settings on record: A549, Jef 50 mg/kg/time intragastric, 3 times a day, 10 days, Day 29. It counts as in vivo, BALB/c-nu nude mice. On the procedure: as §2, §1
For data set [4], the system named is peripheral blood leucocyte of a normal human being. The following applies: berbamine 0.5 μg/mL to 10 μg/mL; cited from earlier work.
Data set [5] concerns human leukemia Jurkat cells. The following applies: cited from earlier work.

For `COc1cc2ncnc(Nc3ccc(F)c(Cl)c3)c2cc1OCCCN1CCOCC1` [Jef, Jefitinib], the Mass of tumor in data set [1] (Mean ± SD) worked out at 0.38 ± 0.37 g; in data set [2] (Mean ± SD), 0.31 ± 0.10 g; in data set [3] (Mean ± SD), 1.52 ± 1.00 g. The tumor inhibition rate was −14.34% in data set [1] (control = 0); 54.08* % in data set [2] (control = 0, * P < 0.05); −34.11% in data set [3] (control = 0).
For `COc1cc2c3cc1Oc1c(OC)c(OC)cc4c1[C@@H](Cc1ccc(O)c(c1)Oc1ccc(cc1)C[C@@H]3N(C)CC2)N(C)CC4` [berbamine, 6,6′,7-trimethoxy-2,2′-dimethylberbaman-12-ol], the “cytotoxic effect (in words)” value in data set [4] is given as “no evident cytotoxic effect”. Moreover, the results for the cell viability in data set [5] (berbamine 0.5 μg/mL) and in data set [5] (berbamine 10 μg/mL) were 93.69% and 14.85%, respectively.
